Assay results taken from patent publication US6482586B1 (priority 1996, dated 2002).
Read-outs that look alike come from different tables or passages of the source.

Legend:
[1] = system: XF-498 cells; experiment: Cell sensitization to VT by butyrate treatment; assay type: cell-based, human; conditions: for effect on XF-498 cell sensitivity to VT1 (in words): cells cultured in 2 mM propionate or capronate
Experimental: Semiconfluent cells in microtiter plates were incubated in triplicates with ten fold VT binding domain dilutions and remaining cells after 72 hr were quantitated by staining with 0.1% crystal violet and measuring the optical density at 570 nm using a microtiter plate reader (31).
(§1) XF-498 astrocytoma, ovarian tumour and vero cell lines were cultured in media containing 2 mM sodium butyrate (or propionate or capronate for astrocytoma cells).

[2] = system: XF-498 cells; experiment: Morphology and growth of treated XF-498 cells; assay type: cell-based, human; conditions: for effect on morphology of XF-498 cells: compound alone in culture medium
Experimental: as §1
(§2) PPMP(1-phenyl-2-hexadecanoylamino-3-morpholino-1-propanol, Matreya Inc. , Pleasant Gap, Pa.) is a potent inhibitor of glucosylceramide synthesis (36) and thereby prevents the synthesis of most glycolipids. Experiments extablished that 27 μM PPMP was able to inhibit glycosphingolipid synthesis without inducing cell death. XF-498 astrocytoma and vero cells were then incubated at 37° C. with 27 μM PPMP in the presence and absence of 2 mM butyrate for 6-7 days.

[3] = system: glycosphingolipid synthesis; experiment: Inhibition of glycolipid synthesis; assay type: cell-based
Experimental: as §2

[4] = system: Gb3 of XF-498 cells; experiment: HPLC analysis of Gb3 fatty acid composition; assay type: cell-based, human; conditions: butyrate treated XF-498
[5] = system: Gb3 in XF-498 cells; assay type: cell-based, human
Experimental: After trypsinization, cells (˜1×10^6) were washed with PBS three times, resuspended in a minimum volume, and extracted with 20 volumes of chloroform/methanol (C/M) 2:1 by vol. The extract was partitioned against water and the lower phase partitioned again against theoretical upper phase. The combined lower phase was then evaporated, saponified with 1 N NaOH in methanol and glycolipids reextracted as above . The dried lower phase was dissolved in CM 98:2 and separated by silica chromatography(32). The column was washed extensively with chloroform and glycolipid eluted in acetone/methanol (9:1 by vol.). Gb3 present was detected by tlc overlay binding with VT binding domain1 (16).
Aliquots of the glycolipid extract of human tumor samples or of tumor cell lines were separated by TLC {chloroform, methanol, water-65:25:4 (v/v/v)}. The plates were dried and blocked with 1% gelatin in water at 37° C. overnight. They were then washed three times with 50 mM TBS for 5 min and incubated with 0.1 μg/ml toxin for 1 hour at R.T. After further washing with TBS, plates were incubated with mouse monoclonal anti-VT binding domain1 antibody(33) (2 μg/ml) for VT binding domain1 followed by peroxidase-conjugated goat anti-mouse antibody . Finally, the plates were washed with TBS, and toxin binding was visualized with 4-chloro-1-naphthol peroxidase substrate. A similar plate was prepared and sprayed with orcinol for comparison of glycolipid content.

[6] = system: XF-498 cells; assay type: cell-based, human
[7] = XF-498 cells after treatment, VT1 TLC overlay

CCCCCCCCCCCCCCCC(=O)NC(CN1CCOCC1)C(O)c1ccccc1 (stereo not drawn) [PPMP, 1-phenyl-2-hexadecanoylamino-3-morpholino-1-propanol]
effect on butyrate induced VT1 sensitivity of XF-498 cells ([1]; 27 μM PPMP with 2 mM butyrate, not shown): prevented | effect on butyrate-induced morphological changes ([2]; PPMP in presence of butyrate): prevented the butyrate-induced morphological changes | effect on morphology of XF-498 cells [2]: no effect | concentration able to inhibit glycosphingolipid synthesis without inducing cell death [3]: 27 µM

CCCC(=O)[O-].[Na+] [butyrate, sodium butyrate]
fatty acid content of the slow migrating Gb3 species [4]: markedly increased C16 and decreased C24 fatty acid content | increase in XF-498 cell sensitivity to VT1 ([1]; cells cultured in 2 mM sodium butyrate): 5000 fold | change in slower migrating Gb3 band [5, 7]: dramatic, selective increase | effect on intracellular routing of VT1 B [6]: marked change in the intracellular routing | effect on morphology of XF-498 cells [2]: profound effect

CCC(=O)O [propionate]
effect on XF-498 cell sensitivity to VT1 (in words) [1]: increased to a lesser extent | change in slower migrating Gb3 band [5, 7]: selectively increased, but to a lesser extent | effect on morphology of XF-498 cells [2]: similar, but less significant, morphological change

CCCCCC(=O)O [capronate]
effect on XF-498 cell sensitivity to VT1 (in words) [1]: no effect | change in slower migrating Gb3 band [5]: no effect | effect on morphology of XF-498 cells [2]: no effect
